Assay results: publication PMC3667592 (Journal of medicinal chemistry, 2013)
Marks after values point to notes of the source that are not given here.

Columns and labels:
[1] = binding to N,N′-Ac2-L-Lys-D-Ala-D-Ala (3), ref 8a; cited from earlier work
VanA and VanB VRE = conditions: cited from earlier work
[2] = Ligand binding, UV-difference titration; conditions: binding to N,N′-Ac2-L-Lys-D-Ala-D-Ala (3)
[3] = reprogrammed precursor terminus D-Ala-D-Lac; cited from earlier work

CN[C@H](CC(C)C)C(=O)N[C@H]1C(=O)N[C@@H](CC(N)=O)C(=O)N[C@H]2C(=O)N[C@H]3C(=O)N[C@H](C(=O)N[C@H](C(=O)O)c4cc(O)cc(O)c4-c4cc3ccc4O)[C@H](O)c3ccc(c(Cl)c3)Oc3cc2cc(c3O[C@@H]2O[C@H](CO)[C@@H](O)[C@H](O)[C@H]2O[C@H]2C[C@](C)(N)[C@H](O)[C@H](C)O2)Oc2ccc(cc2Cl)[C@H]1O [Vancomycin (1), Vancomycin]
Association constant for 3, Ka (value in parentheses) [1]: 2.3–3.9 M^−1 (× 10^5) | Fold drop in antimicrobial activity against resistant strains (VanA and VanB VRE): 1000 fold | Association constant for 3, Ka [2]: 1.8 M^−1 (× 10^5) | Fold decrease in antibiotic binding affinity (D-Ala-D-Lac vs D-Ala-D-Ala) [3]: 1000 fold

CN[C@H](CC(C)C)C(=O)N[C@H]1C(=O)N[C@@H](CC(N)=O)C(=O)N[C@H]2C(=O)N[C@H]3C(=O)N[C@H](C(=O)N[C@H](C(=O)O)c4cc(O)cc(O)c4-c4cc3ccc4O)[C@H](O)c3ccc(c(Cl)c3)Oc3cc2cc(c3O)Oc2ccc(cc2Cl)[C@H]1O [Vancomycin Aglycon (2), Vancomycin Aglycon]
Association constant for 3, Ka [2]: 1.4 M^−1 (× 10^5)
